Source: ChEMBL document CHEMBL1201862, “PubChem BioAssay data set” (2004)
The source made the active and inactive calls.

Tests used:
[1] = Trypanosoma cruzi growth suppression in host cells – NIH3T3 host cells, beta-gal luminescence, confirmation (AID 2044); format: functional, cell-based;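 further: intracellular parasites grown in NIH/3T3 mouse fibroblasts as host cells; luminescent beta-galactosidase reporter signal from transgenic T. cruzi replicating inside host cells; inhibitors lower the luminescence signal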
[2] = NIH3T3 cell viability loss – ATP luminescence, mouse fibroblasts, counter-screen, dose response (AID 2010); format: functional, cell-based;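 further: cells exposed to compound for about 90 hours before reading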
[3] = molecular target: T1, Heat shock factor protein 1 (Mus musculus, UniProt P38532); assay: decrease of HSF1-responsive luciferase luminescence – cell-based, NIH3T3, dose retest, confirmation (AID 2382); format: functional;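 further: NIH3T3 fibroblasts with HSF1-driven luciferase reporter stressed by proteasome inhibitor MG132; luminescence from HSF1-driven luciferase expression after 8 hours of MG132 stress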
T1 sequence (P38532 whole entry): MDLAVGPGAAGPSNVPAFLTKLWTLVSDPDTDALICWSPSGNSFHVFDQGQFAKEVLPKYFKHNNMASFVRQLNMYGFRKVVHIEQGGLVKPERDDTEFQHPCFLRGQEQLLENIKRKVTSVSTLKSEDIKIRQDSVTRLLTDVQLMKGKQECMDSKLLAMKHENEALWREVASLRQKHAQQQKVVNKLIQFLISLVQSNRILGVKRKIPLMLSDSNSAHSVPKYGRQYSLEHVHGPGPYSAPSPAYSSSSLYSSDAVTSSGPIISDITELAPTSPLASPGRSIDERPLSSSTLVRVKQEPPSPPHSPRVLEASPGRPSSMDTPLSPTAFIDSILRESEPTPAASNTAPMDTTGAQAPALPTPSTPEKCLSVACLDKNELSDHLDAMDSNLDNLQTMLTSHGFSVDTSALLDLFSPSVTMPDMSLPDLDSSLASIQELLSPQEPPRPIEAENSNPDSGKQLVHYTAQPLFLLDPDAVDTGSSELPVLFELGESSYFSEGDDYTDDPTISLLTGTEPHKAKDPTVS

Cytochrome P450 2D6 = Cytochrome P450 2D6 (Homo sapiens, UniProt P10635);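 further: CYP2D6 member of a cytochrome P450 panel assay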
Sequence of Cytochrome P450 2D6 (P10635 whole entry): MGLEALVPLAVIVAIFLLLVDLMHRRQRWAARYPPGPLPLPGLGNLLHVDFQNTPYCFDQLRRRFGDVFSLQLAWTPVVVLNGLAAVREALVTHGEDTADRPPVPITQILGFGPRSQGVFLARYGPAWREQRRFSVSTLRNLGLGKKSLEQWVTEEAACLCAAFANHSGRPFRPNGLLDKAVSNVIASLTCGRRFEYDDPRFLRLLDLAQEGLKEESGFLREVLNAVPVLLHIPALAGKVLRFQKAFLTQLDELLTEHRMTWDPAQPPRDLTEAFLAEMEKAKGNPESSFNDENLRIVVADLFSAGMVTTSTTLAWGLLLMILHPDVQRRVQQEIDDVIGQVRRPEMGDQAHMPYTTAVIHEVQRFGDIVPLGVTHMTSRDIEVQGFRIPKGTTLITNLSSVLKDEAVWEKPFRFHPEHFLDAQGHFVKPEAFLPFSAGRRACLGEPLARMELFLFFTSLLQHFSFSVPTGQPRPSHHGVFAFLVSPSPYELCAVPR

Cytochrome P450 2C9 = Cytochrome P450 2C9 (Homo sapiens, UniProt P11712)
Sequence of Cytochrome P450 2C9 (P11712 whole entry): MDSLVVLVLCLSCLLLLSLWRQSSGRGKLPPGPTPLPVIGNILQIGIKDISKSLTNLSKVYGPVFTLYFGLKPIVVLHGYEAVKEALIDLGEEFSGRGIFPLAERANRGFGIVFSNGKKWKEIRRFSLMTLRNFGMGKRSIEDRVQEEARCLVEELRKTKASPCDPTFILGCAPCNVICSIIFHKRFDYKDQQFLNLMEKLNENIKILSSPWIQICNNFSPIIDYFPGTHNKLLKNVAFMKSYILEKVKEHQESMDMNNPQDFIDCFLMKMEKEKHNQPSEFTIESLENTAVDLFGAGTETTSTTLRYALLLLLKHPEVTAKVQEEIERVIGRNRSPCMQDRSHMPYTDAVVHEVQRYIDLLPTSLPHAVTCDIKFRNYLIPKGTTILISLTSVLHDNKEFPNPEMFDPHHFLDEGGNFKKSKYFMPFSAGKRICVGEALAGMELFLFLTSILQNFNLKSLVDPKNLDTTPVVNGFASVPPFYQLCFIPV

Cytochrome P450 3A4 = Cytochrome P450 3A4 (Homo sapiens, UniProt P08684);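 further: CYP3A4 tested as one member of a cytochrome P450 panel screen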
Sequence of Cytochrome P450 3A4 (P08684 whole entry): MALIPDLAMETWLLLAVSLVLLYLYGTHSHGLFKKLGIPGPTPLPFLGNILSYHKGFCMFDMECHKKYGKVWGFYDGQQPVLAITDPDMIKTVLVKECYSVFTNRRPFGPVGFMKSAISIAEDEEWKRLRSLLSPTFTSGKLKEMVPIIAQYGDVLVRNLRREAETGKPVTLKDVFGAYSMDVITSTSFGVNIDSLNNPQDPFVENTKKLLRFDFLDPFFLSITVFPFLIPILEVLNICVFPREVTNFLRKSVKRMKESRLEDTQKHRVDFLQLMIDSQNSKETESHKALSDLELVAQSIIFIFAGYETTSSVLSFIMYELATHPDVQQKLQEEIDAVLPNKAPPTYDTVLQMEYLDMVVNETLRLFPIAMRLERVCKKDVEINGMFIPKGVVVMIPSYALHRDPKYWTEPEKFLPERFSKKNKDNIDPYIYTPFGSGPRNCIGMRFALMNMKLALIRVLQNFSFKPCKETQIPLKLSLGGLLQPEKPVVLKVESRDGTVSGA

Cytochrome P450 2C19 = Cytochrome P450 2C19 (Homo sapiens, UniProt P33261); assay: Cytochrome panel assay with activity outcomes. Panel member name: p450-cyp2c19 Compounds with AC50 equal or less than 10 uM are considered active; format: functional
Sequence of Cytochrome P450 2C19 (P33261 whole entry): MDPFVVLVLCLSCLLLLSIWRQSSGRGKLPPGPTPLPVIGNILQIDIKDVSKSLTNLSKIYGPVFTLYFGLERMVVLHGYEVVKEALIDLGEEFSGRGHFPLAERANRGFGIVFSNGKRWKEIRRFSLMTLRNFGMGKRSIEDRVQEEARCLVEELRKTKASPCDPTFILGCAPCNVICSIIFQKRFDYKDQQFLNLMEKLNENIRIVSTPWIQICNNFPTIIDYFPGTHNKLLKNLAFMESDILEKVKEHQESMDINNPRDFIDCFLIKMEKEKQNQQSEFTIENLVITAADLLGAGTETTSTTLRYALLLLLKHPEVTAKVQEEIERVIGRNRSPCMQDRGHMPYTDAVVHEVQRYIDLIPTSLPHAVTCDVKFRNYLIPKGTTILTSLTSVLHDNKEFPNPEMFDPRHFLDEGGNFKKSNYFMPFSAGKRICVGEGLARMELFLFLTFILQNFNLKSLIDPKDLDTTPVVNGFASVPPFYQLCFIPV

In the case of CN1CCN(c2ccc(S(=O)(=O)N3CCCCC3)cc2NC(=O)CSCc2ccccc2)CC1, the EC50 [1] is reported as 0.315 µM (active) and the EC50 [2] is reported as > 60 µM (not active).

With O=C(Nc1cccnc1)c1noc2c1CCCCC2 the EC50 [3] was 0.288 µM (active).

In the case of O=S(=O)(NCc1ccc(C(F)(F)F)cc1)c1ccc(-n2cnnn2)cc1, the EC50 [3] is reported as > 195 µM (not active).

With CN(C)c1ncnc2ccc(-c3cccnc3)cc12 the AC50 (Cytochrome P450 2D6) was 39.8 µM (inconclusive) and the AC50 (Cytochrome P450 2C9) was 1.26 µM (inconclusive).

With Cc1ccc([N+](=O)[O-])cc1NC(=S)NC(=O)CC(C)(C)C the AC50 (Cytochrome P450 2D6) was 12.6 µM (inconclusive) and the AC50 (Cytochrome P450 3A4) was 22.4 µM (inconclusive).

For COc1ccccc1CN1CCN(Cc2nc(Cc3ccccc3)no2)CC1, the EC50 [1] was 0.754 µM (active) and the EC50 [2] was > 30 µM (not active).

In the case of CCN(CC)C(=O)C1CCCN(Cc2ccc(N(C)C)cc2)C1 (configuration not stated), the EC50 [1] is reported as 0.296 µM (active) and the EC50 [2] is reported as > 60 µM (not active).

In the case of CC(=O)O[C@H]1C2=CO[C@H](C)[C@H]3C4C5=C([C@@H](O[C@H]4C)[C@@]23C(=O)[C@H]2O[C@@H]21)[C@H](O)[C@H]1O[C@@H]1C5=O, the AC50 (Cytochrome P450 3A4) is reported as 3.98 µM (inconclusive).

For CCN(CC)C(=O)CSc1nnc(CNc2ccc(F)cc2)o1, the AC50 (Cytochrome P450 2C19; read-out: AC50) was 22.4 µM (inconclusive) and the AC50 (Cytochrome P450 3A4) was 25.1 µM (inconclusive).

With COc1cccc(-c2csc(N3CCN(C(=S)Nc4ccccc4)CC3)n2)c1 the AC50 (Cytochrome P450 2C9) was 0.158 µM (inconclusive).

In the case of O=C(NCC1CCCN(Cc2ccccc2F)C1)c1cccc(C(F)(F)F)c1 (configuration not stated), the EC50 [1] is reported as 0.975 µM (active) and the EC50 [2] is reported as > 60 µM (not active).

In the case of O=C(c1ccco1)N1CCN(S(=O)(=O)/C=C/c2ccccc2)CC1, the EC50 [3] is reported as > 195 µM (not active).

With CCCn1c(NC(=O)c2ccc(F)cc2)nc2ccccc21 the EC50 [1] was 3 µM (active) and the EC50 [2] was > 60 µM (not active).

In the case of CCOC(=O)c1cncc(C(=O)O)c1, the AC50 (Cytochrome P450 2C19; read-out: AC50) is reported as 31.6 µM (inconclusive).

In the case of Cc1oc(-c2ccccc2F)nc1C[S+]([O-])CC(=O)N1CCC2(CC1)OCCO2 (configuration not stated), the AC50 (Cytochrome P450 2C9) is reported as 20 µM (inconclusive).

For Cn1c(=O)c(-c2ccccc2)nc2cnc(N3CCNCC3)nc21, the AC50 (Cytochrome P450 2C19; read-out: AC50) was 39.8 µM (inconclusive) and the AC50 (Cytochrome P450 2C9) was 15.8 µM (inconclusive).

In the case of O=S(=O)(NCCCCCCc1ccccc1)c1cccc2c(Cl)cccc12, the AC50 (Cytochrome P450 2C9) is reported as 5.01 µM (inconclusive).

For COc1ccc2[nH]cc(CCNc3ccnc(-c4cccc(NS(C)(=O)=O)c4)n3)c2c1, the AC50 (Cytochrome P450 3A4) was 2.51 µM (inconclusive) and the AC50 (Cytochrome P450 2C9) was 0.126 µM (inconclusive).

For CC(=O)OCC1=C(C(=O)O)N2C(=O)[C@@H](NC(=O)CCC[C@@H](N)C(=O)O)[C@@H]2SC1, the AC50 (Cytochrome P450 2C9) was 39.8 µM (inconclusive).

For COc1ccccc1CN(C)C(=O)C1COc2ccccc2O1 (configuration not stated), the EC50 [3] was > 195 µM (not active).

For CC(C)NC(=O)N1CC[C@@]2(CCCN(C(=O)c3csnn3)C2)C1, the AC50 (Cytochrome P450 3A4) was 15.8 µM (inconclusive).

For CCNc1ncc2nc(CCc3ccccc3)c(=O)n(C3CC3)c2n1, the AC50 (Cytochrome P450 2C9) was 3.98 µM (inconclusive).

In the case of O=C(c1cnccn1)N1CCC2(CCCN(c3ccccc3)C2)CC1, the AC50 (Cytochrome P450 2C9) is reported as 39.8 µM (inconclusive).

With Cc1nc(N=C(N)NS(=O)(=O)c2ccc([N+](=O)[O-])cc2)nc2ccccc12 the EC50 [1] was 0.452 µM (active) and the EC50 [2] was 24.6 µM (active).

With CN(C)c1ncc(CN2CCC(CO)(CCCc3ccccc3)CC2)s1 the EC50 [1] was 0.996 µM (active) and the EC50 [2] was > 60 µM (not active).

In the case of CC1(c2ccccc2)NC(=O)N(CC(=O)NCCC2=CCCCC2)C1=O (configuration not stated), the AC50 (Cytochrome P450 2D6) is reported as 22.4 µM (inconclusive) and the AC50 (Cytochrome P450 3A4) is reported as 20 µM (inconclusive).

For Sc1c2ncnc-2ncn1CCSc1[nH]cnc2ncnc1-2, the AC50 (Cytochrome P450 2C19) was “inconclusive”.

In the case of CCOP(=O)(OCC)C(NC(=O)C(Cl)Cl)C(Cl)(Cl)Cl (configuration not stated), the AC50 (Cytochrome P450 3A4) is reported as 31.6 µM (inconclusive) and the AC50 (Cytochrome P450 2C9) is reported as 39.8 µM (inconclusive).

For CCN(CC)C(=O)C1CCCN(c2ccc([N+](=O)[O-])cc2/C=N/NC(=O)c2ccc([N+](=O)[O-])cc2)C1 (configuration not stated), the EC50 [3] was > 195 µM (not active) and the AC50 (Cytochrome P450 3A4) was 2.82 µM (inconclusive).

With CCCCCCCCC(=O)N/N=C/c1cccc(Br)c1 the AC50 (Cytochrome P450 2D6) was 7.08 µM (inconclusive).

In the case of Cc1ccc(C(=O)N/N=C/c2nc3ccccc3n2C)cc1, the AC50 (Cytochrome P450 2C19; read-out: AC50) is reported as 15.8 µM (inconclusive), the AC50 (Cytochrome P450 3A4) is reported as 3.16 µM (inconclusive) and the AC50 (Cytochrome P450 2C9) is reported as 12.6 µM (inconclusive).

In the case of COc1ccc(/C=C/C(=O)Oc2ccc(/C=N/NC(=O)COc3c(C)cccc3C)cc2)cc1, the EC50 [3] is reported as > 195 µM (not active).

In the case of N#CC(C#N)=C(N)/C(C#N)=C/c1ccc(O)cc1, the AC50 (Cytochrome P450 3A4) is reported as 39.8 µM (inconclusive).

For CC(=O)SCC[N+](C)(C)C [ACETYLTHIOCHOLINE], the AC50 (Cytochrome P450 2C19) was “inconclusive”.

For CN1CCN(C(c2ccccc2)c2ccccc2)CC1 [CYCLIZINE], the AC50 (Cytochrome P450 2D6) was 7.94 µM (inconclusive).
